# Tests used:
# Mouse EL = target: T1, Mouse EL (Mus musculus, UniProt Q9WVG5); assay: Endothelial Lipase Assay, cell surface lipase activity (mouse); assay type: cell-based; conditions: PLA1 substrate 10 μM, fluorescence reaction rate, several values in a cell are repeat determinations
# T1 construct: host or cells: not described for mouse EL
# T1 sequence (Q9WVG5 21-500): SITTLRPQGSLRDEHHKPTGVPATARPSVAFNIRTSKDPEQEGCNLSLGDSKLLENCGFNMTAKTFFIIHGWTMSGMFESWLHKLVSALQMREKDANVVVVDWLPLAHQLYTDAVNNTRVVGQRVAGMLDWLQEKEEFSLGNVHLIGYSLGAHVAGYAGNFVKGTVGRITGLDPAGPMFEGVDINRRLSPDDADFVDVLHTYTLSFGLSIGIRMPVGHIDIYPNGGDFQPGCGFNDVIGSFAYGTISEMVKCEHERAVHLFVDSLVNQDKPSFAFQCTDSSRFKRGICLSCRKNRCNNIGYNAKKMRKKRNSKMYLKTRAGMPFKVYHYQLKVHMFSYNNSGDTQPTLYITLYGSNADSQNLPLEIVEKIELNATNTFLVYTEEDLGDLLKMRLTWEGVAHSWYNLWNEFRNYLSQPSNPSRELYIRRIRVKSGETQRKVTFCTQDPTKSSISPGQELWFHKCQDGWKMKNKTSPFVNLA
# Protocol: (§1) Endothelial Lipase Assay (Human/Mouse)
# (§2) To assay for cell surface lipase activity, cells expressing human endothelial lipase (EL) or LPL were plated in CellBIND® 384-well plates (Corning, Lowell, Mass.) in 25 μL serum free medium at a density of 2000 cells/well. After 18-24 hours incubation at 37° C., the medium was removed and replaced with 15 μL assay buffer [Hank's Buffered Saline Solution with 25 mM HEPES pH 7.2] and 15 μL PLA1 for a final concentration of 10 μM using a Multidrop reagent dispenser. Fluorescence signal was monitored for 30 min at 37° C. on a Safire II plate reader in kinetic mode (60 cycles, kinetic interval: 30 seconds) with an excitation wavelength of 490 nm and an emission wavelength of 515 nm. Linear regression of the fluorescence intensity collected from 480 to 1500 seconds was used to calculate the reaction rate (the slope) and the slopes were used to calculate IC50 values where appropriate. The amount of BODIPY-labeled product generated was calculated at the 30 min time point as determined from standard curve analysis of purified BODIPY FL C5. In all studies using the inhibitor Ebelactone B, consistent results were obtained when it was dissolved as a stock in DMSO, immediately before use.
# [1] = target: T2, human endothelial lipase (EL) (Homo sapiens, UniProt Q9Y5X9); assay: Endothelial Lipase Assay, cell surface lipase activity (human); assay type: cell-based; conditions: cells expressing human EL, PLA1 substrate 10 μM, fluorescence reaction rate; several values in a cell are repeat determinations
# T2 construct: host or cells: cells expressing human endothelial lipase
# T2 sequence (Q9Y5X9 21-500): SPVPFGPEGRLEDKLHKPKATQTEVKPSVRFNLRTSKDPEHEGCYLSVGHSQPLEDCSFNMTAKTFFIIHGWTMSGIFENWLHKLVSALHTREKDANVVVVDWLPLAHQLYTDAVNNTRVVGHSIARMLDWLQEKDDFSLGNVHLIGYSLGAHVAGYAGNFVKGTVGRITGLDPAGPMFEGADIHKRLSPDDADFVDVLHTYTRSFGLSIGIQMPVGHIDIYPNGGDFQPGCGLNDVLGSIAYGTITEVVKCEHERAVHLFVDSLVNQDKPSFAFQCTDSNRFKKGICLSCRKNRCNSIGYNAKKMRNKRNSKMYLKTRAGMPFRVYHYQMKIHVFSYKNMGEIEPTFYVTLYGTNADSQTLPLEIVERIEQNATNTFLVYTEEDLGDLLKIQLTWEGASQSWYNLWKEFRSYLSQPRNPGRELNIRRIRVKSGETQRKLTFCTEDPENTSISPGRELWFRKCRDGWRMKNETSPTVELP
# Protocol: as §1, §2
Structure (SMILES),IC50 (Mouse EL),IC50 [1]
"Cc1ncsc1CCCCCCC(=O)C(=O)NCc1nnc(-c2ccc(OCc3cccc(F)c3)cc2)s1 [Compound 154, N-((5-(4-((3-fluorobenzyl)oxy)phenyl)-1,3,4-thiadiazol-2-yl)methyl)-8-(4-methylthiazol-5-yl)-2-oxooctanamide]",0.047 µM,0.036 µM
Cc1ccc(-c2nnc(CNC(=O)C(=O)CCCCCc3ccc(F)cc3)o2)cc1 [Compound 39],0.772 µM,0.643 µM
O=C(CCCCCCc1ccccc1)C(=O)NCc1nnc(-c2ccc(OCc3ccccn3)cc2)o1 [Compound 88],0.196 µM,0.178 µM
O=C(CCCCCOc1ccccc1)C(=O)NCc1nnc(-c2cccc(Oc3ccccc3)c2)o1 [Compound 60],9.79 µM,7.12 µM
CN(Cc1ccccn1)c1ccc(-c2nnc(CNC(=O)C(=O)CCCCCCc3ccccc3)o2)cc1 [Compound 111],0.156 µM,0.236 µM
O=C(CCCCCCc1ccccc1)C(=O)NCc1nnc(-c2ccc(OCn3nnc4ccccc43)cc2)o1 [Compound 104],0.181 µM,0.23 µM
O=C(CCCCCCc1cncnc1)C(=O)NCc1nnc(-c2ccc(Oc3ccccc3)cc2)o1 [Compound 120],0.973 µM,1.51 µM
O=C(CCCCCCc1ccccc1)C(=O)NCc1nnc(-c2cc(F)cc(F)c2)o1 [Compound 26],0.436 µM,0.668 µM
O=C(CCCCCOc1cccc(F)c1)C(=O)NCc1nnc(-c2ccc3ccccc3c2)o1 [Compound 54],0.802 µM,0.916 µM
O=C(CCCCCNc1ncccn1)C(=O)NCc1nnc(-c2ccc(OCc3ccccc3)cc2)o1 [Compound 176],27 µM,27.9 µM
O=C(CCCCCOc1cccc(F)c1)C(=O)NCc1nnc(-c2ccc(Oc3ccc(Cl)cc3)cc2)o1 [Compound 57],1.1 µM,3.78 µM
O=C(CCCCCCc1ccc(F)nc1)C(=O)NCc1nnc(-c2ccc(OCc3ccncc3)cc2)s1 [Compound 159],0.174 µM,0.24 µM
O=C(CCCCCCc1ccccc1)C(=O)NCc1nnc(-c2ccc(Oc3ccc(F)cc3)cc2)o1 [Compound 106],0.298 µM,0.746 µM
O=C(CCCCCCc1ccccc1)C(=O)NCc1nnc(-c2ccc(OCc3cccc(F)n3)cc2)s1 [Compound 151],0.661 µM,0.712 µM
CC(C)(C)OC(=O)c1cccc(COc2ccc(-c3nnc(CNC(=O)C(=O)CCCCCCc4ccccc4)o3)cc2)c1 [Compound 125],0.993 µM,2.58 µM
Cn1ccnc1COc1ccc(-c2nnc(CNC(=O)C(=O)CCCCCCc3ccccc3)o2)cc1 [Compound 78],0.775 µM,0.944 µM
O=C(CCCCCCc1ccccc1)C(=O)NCc1nnc(-c2ccccc2F)o1 [Compound 12],1.76 µM,2.1 µM
O=C(CCCCCCc1ccccc1)C(=O)NCc1nnc(-c2ccc(OCc3cc[n+]([O-])cc3)cc2)s1 [Compound 156],0.383 µM,0.397 µM
O=C(CCCCCOc1cccc(F)c1)C(=O)NCc1nnc(-c2ccc3c(c2)Oc2ccccc2O3)o1 [Compound 62],2.72 µM,5.2 µM
COc1cccc(OCCCCCC(=O)C(=O)NCc2nnc(-c3ccc(Oc4ccccc4)cc3)o2)c1 [Compound 65],0.793 µM,0.872 µM
O=C(CCCCCCc1ccccc1)C(=O)NCc1nnc(-c2ccncc2)o1 [Compound 178],7.32 µM,11.6 µM
CN(C)CCNC(=O)c1ccc(-c2nnc(CNC(=O)C(=O)CCCCCCc3ccccc3)o2)cc1 [Compound 149],3.4 µM,4.25 µM
O=C(CCCCCNc1ncccn1)C(=O)NCc1nnc(-c2ccccc2)o1 [Compound 148],14.7 µM,12.3 µM
CN(c1ccc(Br)cc1)c1ccc(-c2nnc(CNC(=O)C(=O)CCCCCCc3ccccc3)o2)cc1 [Compound 75],11.2 µM,11.6 µM

Structure (SMILES),IC50 (Mouse EL),IC50 [1]
N#Cc1cccc(COc2ccc(-c3nnc(CNC(=O)C(=O)CCCCCCc4ccccc4)s3)cc2)c1 [Compound 144],0.249 µM,0.421 µM
CN(Cc1ccccc1)c1ccc(-c2nnc(CNC(=O)C(=O)CCCCCCc3ccccc3)o2)cc1 [Compound 109],0.317 µM,0.505 µM
N#Cc1ccc(C#CCCCCC(=O)C(=O)NCc2nnc(-c3ccccc3)o2)cc1 [Compound 45],2.41 µM,3.47 µM
O=C(CCCCCCc1ccccc1)C(=O)NCc1nnc(-c2ccc(Oc3ncccn3)cc2)o1 [Compound 87],0.708 µM,1.45 µM
O=C(CCCCCCc1ccccc1)C(=O)NCc1nnc(-c2ccc(Oc3cccc(Cl)c3)cc2)o1 [Compound 66],0.366 µM,0.255 µM
O=C(CCCCCCc1ccccc1)C(=O)NCc1nnc(-c2ccc(NCc3ccc(F)c(F)c3)cc2)o1 [Compound 118],0.476 µM,0.675 µM
O=C(CCCCCCc1ccccc1)C(=O)NCc1nnc(-c2ccc(OCc3cccc(F)c3)cc2)o1 [Compound 84],0.2 µM,0.235 µM
O=C(CCCCCCc1ccccc1)C(=O)NCc1nnc(-c2ccc(OCc3cccnc3)cc2)o1 [Compound 82],0.133 µM,0.108 µM
O=C(CCCCCCc1ccc(F)nc1)C(=O)NCc1nnc(-c2ccc(OCc3ccnc(F)c3)cc2)s1 [Compound 168],0.064 µM,0.107 µM
O=C(CCCCCCc1ccccc1)C(=O)NCc1nnc(-c2ccc(OCc3cccc(C(=O)O)c3)cc2)o1 [Compound 126],0.242 µM,0.398 µM
O=C(CCCCCOc1cc(F)ccc1F)C(=O)NCc1nnc(-c2ccc(OCc3ccccc3)cc2)o1 [Compound 94],0.634 µM,0.936 µM
O=C(CCCCCOc1cc(F)cc(F)c1)C(=O)NCc1nnc(-c2ccc(Oc3ccccc3)cc2)o1 [Compound 95],0.56 µM,1.06 µM
O=C(CCCCCOc1ccccc1)C(=O)NCc1nnc(-c2ccccc2)o1 [Compound 46],6.51 µM,8.75 µM
O=C(CCCCCCc1ccc(C(F)(F)F)nc1)C(=O)NCc1nnc(-c2ccc(Oc3ccccc3)cc2)o1 [Compound 136],0.406 µM,0.595 µM
O=C(CCCCCOc1c(F)cccc1F)C(=O)NCc1nnc(-c2ccc(OCc3ccccc3)cc2)o1 [Compound 101],19.9 µM,5.48 µM
COc1cccc(OCCCCCC(=O)C(=O)NCc2nnc(-c3cccc(Oc4ccccc4)c3)o2)c1 [Compound 64],9.98 µM,10.9 µM
O=C(CCCCCCc1cccc(F)c1)C(=O)NCc1nnc(-c2ccc3ccccc3c2)o1 [Compound 28],0.127 µM,0.224 µM
O=C(CCCCCCc1ccccc1)C(=O)NCc1nnc(-c2ccc(OCc3ccc4ccccc4n3)cc2)o1 [Compound 89],0.232 µM,0.565 µM
O=C(CCCCCOc1cc(F)cc(F)c1)C(=O)NCc1nnc(-c2ccc(OCc3ccccc3)cc2)o1 [Compound 100],0.551 µM,1.33 µM
Cc1ccc(-c2nnc(CNC(=O)C(=O)CCCCCOc3ccccc3)o2)cc1 [Compound 47],3.03 µM,3.19 µM
O=C(CCCCCCc1ccccc1)C(=O)NCc1nnc(-c2ccc(OCc3ccc(Cl)cc3)cc2)o1 [Compound 77],33.3 µM,33.3 µM
O=C(CCCCCCc1ccccc1)C(=O)NCc1nnc(-c2ccc(Cl)cc2)o1 [Compound 2],0.616 µM,0.488 µM
"O=C(CCCCCCc1ccccc1)C(=O)NCc1nnc(-c2ccc(OCc3ccncc3)cc2)s1 [Compound 140, 2-oxo-8-phenyl-N-((5-(4-(pyridin-4-ylmethoxy)phenyl)-1,3,4-thiadiazol-2-yl)methyl)octanamide]",0.029 µM,0.032 µM
